# Measurements from ChEMBL document CHEMBL4699525, “Design and synthesis of new indanol-1,2,3-triazole derivatives as potent antitubercular and antimicrobial agents” (Bioorg Med Chem Lett, 2020).
# The source made the active and inactive calls. The rule behind the calls is not given here.
# How the values were obtained:
# [1] = target: T1, Enoyl-[acyl-carrier-protein] reductase [NADH] (Mycobacterium tuberculosis) (UniProt P9WGR1); experiment: Inhibition of InhA in Mycobacterium tuberculosis H37Rv assessed antitubercular activity by measuring inhibition of bacterial growth incubated for 7 days by MABA assay; settings: time 7.0 day
# T1 sequence (whole entry): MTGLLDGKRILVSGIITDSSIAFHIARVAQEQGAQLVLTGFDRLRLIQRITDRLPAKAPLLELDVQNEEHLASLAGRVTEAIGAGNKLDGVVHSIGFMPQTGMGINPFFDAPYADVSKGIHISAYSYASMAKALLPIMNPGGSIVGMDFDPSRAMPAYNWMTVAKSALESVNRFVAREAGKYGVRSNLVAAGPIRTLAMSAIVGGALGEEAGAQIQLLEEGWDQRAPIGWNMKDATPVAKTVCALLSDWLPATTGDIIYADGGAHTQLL
# Staphylococcus aureus = experiment: Antibacterial activity against Staphylococcus aureus assessed as inhibition of bacterial growth incubated for 24 hrs by agar well diffusion method; format: functional; also: test concentration or dose not given here
# Bacillus cereus = experiment: Antibacterial activity against Bacillus cereus assessed as inhibition of bacterial growth incubated for 24 hrs by agar well diffusion method; format: functional; also: test concentration or dose not given here
# Bacillus subtilis = experiment: Antibacterial activity against Bacillus subtilis assessed as inhibition of bacterial growth incubated for 24 hrs by agar well diffusion method; format: functional; also: test concentration or dose not given here
# Klebsiella aerogenes = experiment: Antibacterial activity against Enterobacter aerogenes assessed as inhibition of bacterial growth incubated for 24 hrs by agar well diffusion method; format: functional; also: test concentration or dose not given here
# Escherichia coli = experiment: Antibacterial activity against Escherichia coli assessed as inhibition of bacterial growth incubated for 24 hrs by agar well diffusion method; format: functional; also: test concentration or dose not given here
# Salmonella typhi = experiment: Antibacterial activity against Salmonella typhi assessed as inhibition of bacterial growth incubated for 24 hrs by agar well diffusion method; format: functional; settings: Salmonella enterica subsp. enterica serovar Typhi
# Pseudomonas aeruginosa = experiment: Antibacterial activity against Pseudomonas aeruginosa assessed as inhibition of bacterial growth incubated for 24 hrs by agar well diffusion method; format: functional; also: test concentration or dose not given here
# Shigella boydii = experiment: Antibacterial activity against Shigella boydii assessed as inhibition of bacterial growth incubated for 24 hrs by agar well diffusion method; format: functional; as to DIZ: test concentration or dose not given here
# [2] = system: Salmonella enterica subsp. enterica serovar Abony; experiment: Antibacterial activity against Salmonella abony assessed as inhibition of bacterial growth incubated for 24 hrs by agar well diffusion method; format: functional; also: test concentration or dose not given here
# Aspergillus niger = experiment: Antifungal activity against Aspergillus niger assessed as inhibition of fungal growth incubated for 24 hrs by agar well diffusion method; format: functional; also: test concentration or dose not given here
# Candida albicans = experiment: Antifungal activity against Candida albicans assessed as inhibition of fungal growth incubated for 24 hrs by agar well diffusion method; format: functional; as to DIZ: test concentration or dose not given here
# Saccharomyces cerevisiae = experiment: Antifungal activity against Saccharomyces cerevisiae assessed as inhibition of fungal growth incubated for 24 hrs by agar well diffusion method; format: functional; also: test concentration or dose not given here
SMILES,MIC [1],diameter of the inhibition zone (DIZ) (Staphylococcus aureus),diameter of the inhibition zone (DIZ) (Bacillus cereus),diameter of the inhibition zone (DIZ) (Bacillus subtilis),diameter of the inhibition zone (DIZ) (Klebsiella aerogenes),diameter of the inhibition zone (DIZ) (Escherichia coli),diameter of the inhibition zone (DIZ) (Salmonella typhi),diameter of the inhibition zone (DIZ) (Pseudomonas aeruginosa),diameter of the inhibition zone (DIZ) (Shigella boydii),diameter of the inhibition zone (DIZ) [2],diameter of the inhibition zone (DIZ) (Aspergillus niger),diameter of the inhibition zone (DIZ) (Candida albicans),diameter of the inhibition zone (DIZ) (Saccharomyces cerevisiae)
COc1ccc(NC(=O)Cn2cc(COc3ccc4c(c3)CCC4)nn2)cc1,> 25 µM,inactive,inactive,inactive,inactive,inactive,inactive,inactive,inactive,inactive,inactive,inactive,inactive
Cc1ccc(NC(=O)Cn2cc(COc3ccc4c(c3)CCC4)nn2)c(C)c1,> 25 µM,inactive,inactive,inactive,inactive,inactive,inactive,inactive,13 mm,inactive,inactive,inactive,inactive
O=C(Cn1cc(COc2ccc3c(c2)CCC3)nn1)Nc1ccc(Cl)cc1,> 25 µM,8 mm,inactive,inactive,inactive,inactive,inactive,inactive,inactive,inactive,inactive,15 mm,10 mm
O=C(Cn1cc(COc2ccc3c(c2)CCC3)nn1)Nc1ccccc1Cl,> 25 µM,inactive,inactive,inactive,inactive,inactive,inactive,inactive,–,inactive,inactive,inactive,inactive
Cc1ccc([N+](=O)[O-])cc1NC(=O)Cn1cc(COc2ccc3c(c2)CCC3)nn1,> 25 µM,inactive,inactive,inactive,12 mm,inactive,inactive,9 mm,9 mm,inactive,inactive,inactive,inactive
Clc1ccc(-n2cc(COc3ccc4c(c3)CCC4)nn2)cc1,> 25 µM,8 mm,inactive,inactive,inactive,inactive,inactive,inactive,inactive,inactive,inactive,10 mm,8 mm
O=C(Cn1cc(COc2ccc3c(c2)CCC3)nn1)Nc1ccc(Br)cc1,> 25 µM,inactive,inactive,inactive,12 mm,inactive,inactive,5 mm,13 mm,inactive,inactive,inactive,12 mm
Brc1ccc(-n2cc(COc3ccc4c(c3)CCC4)nn2)cc1,> 25 µM,inactive,inactive,inactive,inactive,8 mm,inactive,inactive,inactive,inactive,inactive,11 mm,7 mm
Cc1ccccc1NC(=O)Cn1cc(COc2ccc3c(c2)CCC3)nn1,> 25 µM,inactive,inactive,inactive,inactive,inactive,inactive,inactive,11 mm,inactive,inactive,inactive,inactive
CC[C@@H](CO)NCCN[C@@H](CC)CO,3.12 µM,–,–,–,–,–,–,–,–,–,–,–,–
CCc1ccc(-n2cc(COc3ccc4c(c3)CCC4)nn2)cc1,> 25 µM,7 mm,inactive,inactive,inactive,inactive,inactive,inactive,inactive,inactive,inactive,13 mm,–
Cc1ccc(-n2cc(COc3ccc4c(c3)CCC4)nn2)cc1,> 25 µM,inactive,inactive,inactive,inactive,inactive,inactive,inactive,inactive,inactive,inactive,12 mm,inactive
O=C(Cn1cc(COc2ccc3c(c2)CCC3)nn1)Nc1ccc(F)cc1,> 25 µM,13 mm,inactive,inactive,inactive,inactive,inactive,inactive,11 mm,inactive,inactive,13 mm,inactive
CCc1ccc(NC(=O)Cn2cc(COc3ccc4c(c3)CCC4)nn2)cc1,> 25 µM,inactive,inactive,inactive,inactive,inactive,inactive,inactive,11 mm,inactive,inactive,inactive,inactive
O=C(O)c1cn(C2CC2)c2cc(N3CCNCC3)c(F)cc2c1=O,1.56 µM,–,–,–,–,–,–,–,–,–,–,–,–
Cc1cc([N+](=O)[O-])ccc1NC(=O)Cn1cc(COc2ccc3c(c2)CCC3)nn1,> 25 µM,inactive,inactive,inactive,inactive,inactive,inactive,inactive,–,inactive,inactive,inactive,inactive
